Non-standard residues stand in square brackets, D forms with d. Residues, ends and D or L forms follow the SMILES beside them. Aha = [N-]=[N+]=NCC[C@H](N)C(=O)O
Test: Water solubility of hydrophobic peptide and its linker cleavage fragments
Format: physicochemical
Procedure: In order to enhance solubility of this peptide a variant was prepared in which a cleavable N-terminal poly-lysine tag was synthesized after the peptide sequence and incorporated cleavable linker 1: H-KKKKK—(linker 1) AhaGISFSIRFAIWIRFG-NH2 (10) (SEQ. ID. No: 3). Synthesis and purification of this modified peptide proceeded smoothly according to example 3 (FIG. 2B). Pure peptide 10 was dissolved in a 0.05 M aqueous NaHCO3 solution and shaken for 2 h at r.t. (FIG. 2A). The cleavage reaction released the two peptides 11 and 12: While the poly-lysine tag 11 is water soluble, peptide 12 precipitated under the reaction conditions and could be easily isolated in high purity by centrifugation. • FIG. 2B: LC-MS of H-KKKKK (linker 1)-AhaGISFSIRFAIWIRFG-NH2 (10), MS (ESI): 545.4 [M+5H]^5+, 681.6 [M+4H]^4+, 908.3 [M+3H]^3+, 1362.0 [M+2H]^2+. • FIG. 2C: MS (ESI) of insoluble peptide 12 (MS (ESI): 661.5 [M+3H]^3+, 991.3 [M+2H]^2+, 1322.0 […], 1983.1 [M+H]^+).

solubility in water: insoluble in water
SMILES: CC[C@H](C)[C@H](NC(=O)CNC(=O)[C@@H](N)CCN=[N+]=[N-])C(=O)N[C@@H](CO)C(=O)N[C@@H](Cc1ccccc1)C(=O)N[C@@H](CO)C(=O)N[C@H](C(=O)N[C@@H](CCCNC(=N)N)C(=O)N[C@@H](Cc1ccccc1)C(=O)N[C@@H](C)C(=O)N[C@H](C(=O)N[C@@H](Cc1c[nH]c2ccccc12)C(=O)N[C@H](C(=O)N[C@@H](CCCNC(=N)N)C(=O)N[C@@H](Cc1ccccc1)C(=O)NCC(N)=O)[C@@H](C)CC)[C@@H](C)CC)[C@@H](C)CC [H-AhaGISFSIRFAIWIRFG-NH2] (H-[Aha]GISFSIRFAIWIRFG-NH2)
